Data as given in patent US20140031283A1, “ANTICANCER FUSION PROTEIN” (ADAMED SP. Z O.O., priority 2011, published 2014).

Key:
[1] = test system: human lung cancer NCI-H460-Luc2; experiment: NCI-H460-Luc2 lung cancer xenograft in Crl:CD1-Foxn1nu 1 mice; assay type: in vivo; details: NCI-H460-Luc2, Crl:CD1-Foxn1nu 1 mice, 10 mg/kg i.v. six times every second day, 30th day
Experimental: (§1) Antitumor activity of protein preparations was tested in a mouse model of human colon cancer HCT116, human colon cancer Colo205, human colon cancer model SW620, human liver cancer model HepG2, and human lung cancer models NCI-H460 and NCI-H460-Luc2.
(§2) The HCT116 (in mice Crl:CD1-Foxn1^nu 1), Colo205, NCI-H460, NCI-H460-Luc2 cells were maintained in RPMI 1640 medium (Hyclone, Logan, Utah, USA) mixed in the ratio of 1:1 with Opti-MEM (Invitrogen, Cat.22600-134) supplemented with 10% fetal calf serum and 2 mM glutamine. On the day of mice grafting, the cells were detached from the support by washing the cells with trypsin (Invitrogen), then the cells were centrifuged at 1300 rpm, 4° C., 8 min., suspended in HBSS buffer (Hanks medium), counted and diluted to the concentration of 25×10^6 cells/ml.
(§3) Examination of antitumor activity of proteins of the invention was conducted on 7-9 week-old CD-nude (Crl:CD1-Foxn1^nu 1) or 4-6 week-old Crl:SHO-Prkdc^scidHr^hr mice obtained from Charles River Germany. Mice were kept under specific pathogen-free conditions with free access to food and demineralised water (ad libitum). All experiments on animals were carried in accordance with the guidelines: “Interdisciplinary Principles and Guidelines for the Use of Animals in Research. […]

HCT-116 = details: continuous incubation over 72 h, test MTT
Experimental: (§4) Data analysis consists in determining IC50 concentration of the protein (in ng/ml), at which the 50% reduction in the number of cells occurs in the population treated compared to control cells. Results were analyzed using GraphPad Prism 5.0 software. […] Cell culture medium was diluted to a defined density (10^4-10^5 cells per 100 μl). Then 100 μl of appropriately diluted cell suspension was applied to a 96-well plate in triplicates. Thus prepared cells were incubated for 24 h at 37° C. in 5% or 10% CO2, depending on the medium used, and then to the cells (in 100 μl of medium) further 100 μl of the medium containing various concentrations of tested proteins were added. […] After incubation of the cells with tested proteins over the period of next 72 hours, which is equivalent to 3-4 times of cell division, the medium with the test protein was added with 20 ml of MTT working solution [5 mg/ml], and incubation was continued for 3 h at 37° C. in 5% CO2. Then the medium with MTT solution was removed, and formazan crystals were dissolved by adding 100 μl of DMSO. After stirring, the absorbance was measured at 570 nm (reference filter 690 nm).
(§5) Each experiment represents the average value of at least two independent experiments performed in triplicates.

[2] = test system: human lung cancer NCI-H460; experiment: NCI-H460 lung cancer xenograft in Crl:SHO-PrkdcscidHrhr mice; assay type: in vivo; details: 30 mg/kg i.v. six times every second day, 28th day
Experimental: as §1, §2, §3

NCI-H460 = details: continuous incubation over 72 h, test MTT
Experimental: as §4, §5

[3] = test system: human colon cancer HCT116; experiment: HCT116 colon cancer xenograft in Crl:CD1-Foxn1^nu 1 mice; assay type: in vivo; details: HCT116, Crl:CD1-Foxn1^nu 1 mice
Experimental: as §1, §2, §3

Substance: rhTRAIL114-281: recombinant human soluble TRAIL, amino acids 114-281 of hTRAIL, used as the comparative reference
- tumor growth inhibition (TGI) relative to the control [1]: 53.1%
- HCT116 IC50 (HCT-116): 0.02557 µg/mL
- tumor growth inhibition (TGI) relative to the control [2]: 17.5%
- NCI-H460 IC50 (NCI-H460): 0.06968 µg/mL
- tumor growth inhibition (TGI) relative to the control ([3]; 10 mg/kg i.v. daily for ten days, 31th day): 21.8%
- tumor growth inhibition (TGI) relative to the control ([3]; 10 mg/kg i.v., 10 daily applications with a two-day break after the first 5, 27th day): 44%
